Measurements from patent US20100040666A1, “Method for Control of Drug Elution Rate and Composition for Coating of Drug-Eluting Stent” (priority 2005, published 2010).

Test: Elution test of compound represented by structural formula (2) from poly (MPC-co-BMA)
Format: physicochemical
Conditions: thin plate of stainless steel coated sequentially with compositions of Examples 1 to 3, immersed in distilled water
Description: Test 2: Elution Test of Compound Represented by Structural Formula (2)
The elution test of the compound represented by the structural formula (2) from poly (MPC-co-BMA) was conducted. The test sample was prepared by coating sequentially the compositions from Examples 1 to 3 to a thin plate of stainless steel. The prepared sample was immersed in distilled water, and then the amount of the eluted compound represented by the structural formula (2) was measured with time.
It can be verified that the compound represented by the structural formula (2) is eluted for about 100 hours. In addition, even after 100 hours, the compound represented by the structural formula (2) is eluted gradually for 400 hours, and thus it can be verified that controlled release is intended.

time for which the compound is eluted (cumulative eluted amount, FIG. 3): about 100 hours | time for which the compound is eluted gradually, even after 100 hours (controlled release): 400 h
Structure (SMILES): CCOc1cccc(C(CC)n2nc(C(=O)O)c3c2-c2ccc(OCc4cncnc4)cc2CC3)c1 (centres unmarked) [structural formula (2)]
